Test results reported in patent US8329675B2, “Inhibitors of fatty acid amide hydrolase” (Infinity Pharmaceuticals, Inc., priority 2006, dated 2012).

The compounds below were run against T1, human FAAH (Homo sapiens, UniProt O00519) (assay: Human FAAH biochemical inhibition assay (AMC arachidonoyl amide fluorescence)). Conditions: not given.
T1 construct: host or cells: COS-7 cells, transient transfection; 13,000 g membrane fraction solubilised in 1% Triton X-100
T1 sequence (O00519 1-579): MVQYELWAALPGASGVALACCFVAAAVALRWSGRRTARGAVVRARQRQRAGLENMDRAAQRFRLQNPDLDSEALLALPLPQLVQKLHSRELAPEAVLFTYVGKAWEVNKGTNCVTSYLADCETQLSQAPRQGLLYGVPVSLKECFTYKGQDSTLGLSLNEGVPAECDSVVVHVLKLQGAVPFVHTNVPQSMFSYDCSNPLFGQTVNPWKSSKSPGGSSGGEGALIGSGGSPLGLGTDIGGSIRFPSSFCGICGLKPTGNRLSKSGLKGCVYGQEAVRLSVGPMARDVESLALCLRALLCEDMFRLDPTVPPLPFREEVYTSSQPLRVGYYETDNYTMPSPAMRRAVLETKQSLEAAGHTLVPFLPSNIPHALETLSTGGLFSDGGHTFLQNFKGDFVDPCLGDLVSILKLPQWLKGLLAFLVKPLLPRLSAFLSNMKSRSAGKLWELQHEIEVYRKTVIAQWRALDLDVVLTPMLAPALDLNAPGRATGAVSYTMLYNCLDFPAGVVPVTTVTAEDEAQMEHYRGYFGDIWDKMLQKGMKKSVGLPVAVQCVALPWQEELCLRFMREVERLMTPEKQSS
Protocol: The resulting solution is added into one dish of 30-40% confluent COS-7 cells in a drop-wise manner. The COS-7 cell dish is subsequently incubated for 48 hours. The cells are then harvested.
Harvest procedure: Media was aspirated from the dishes and the cells rinsed with 10 mL PBS. The PBS was removed and 3 mLs of PBS added to the dish. The dish was scraped to resuspend the cells, and the subsequent cell suspension collected into a 15 ml conical tube. The cells were pelleted by centrifugation at 1200 rpm for 5 minutes in a bench top centrifuge. PBS was removed and the cell pellet snap frozen in liquid nitrogen, store at −80 C.
The pellets were dounce homogenized and then sonicated to produce cell extract. The cell extract was subsequently centrifuged at 1000 g to remove cellular debris. The pellet was discarded and the supernatant centrifuged at 13,000 g for 20 minutes. The pellet contained membrane bound FAAH. The supernatant was discarded and the pellet resolubilized.
(2) Re-solubilization: The fraction of interest, (13,000 g, membrane fraction) was re-suspended in re-suspension buffer (20 mM Hepes pH 7.8, 10% v/v Glycerol, 1 mM EDTA, 1% Triton X-100) (2.3 mL re-suspension and the sample incubated on ice for 1 hour and then centrifuged to at 13,000 g remove any particulate matter. The supernatant containing solubilized human FAAH was aliquoted and snap frozen in liquid nitrogen and stored at −80° C. until use.
FAAH reaction buffer: 50 mM Hepes (pH 7.5), 1 mM EDTA, 0.2% Triton X-100.
Human FAAH assay; Experimental Protocol: A 0.1 mg/mL Human FAAH solution is made up in FAAH reaction buffer, and 24 ul pipetted into a 384 well plate. To this is added 1 uL of a 3 fold serially diluted inhibitor from a DMSO stock solution. The FAAH solution and inhibitor are incubated for 30 minutes at room temperature. The FAAH reaction is initiated by the addition of 25 uL of 40 uM AMC Arachidonoyl Amide in FAAH reaction buffer, yielding a final reaction human FAAH preparation concentration of 0.05 mg/ml and AMC-Arachidonoyl substrate concentration of 20 uM, reaction volume 50 uL. The reaction is allowed to proceed for 4 hours at room temperature. […] The microtiter plate in read in the envision plate reader.
Work on OB(O)c1ccc(Cl)cc1 [Compound I-82] yielded a Ki of 10 to 1000 nM.

Same assay, conditions: Table 1, human FAAH (no asterisk); read-out: Activity (Ki)
OB(O)c1cc(I)ccc1F [Compound I-1] showed a Ki of 10 to 1000 nM. Work on OB(O)c1cccc(I)c1 [Compound I-2] yielded a Ki of 10 to 100 nM. For CC1(C)OB(c2cccc3cc[nH]c23)OC1(C)C [Compound I-3], the Ki was greater than 1000 nM. Compound OB(O)c1cccc2c1oc1ccccc12 [Compound I-4] has a Ki of 10 to 1000 nM. COc1cccc(COc2c(Br)cccc2B(O)O)c1 [Compound I-5] gave a Ki greater than 1000 nM. Work on CCOc1ccc(Br)cc1B(O)O [Compound I-6] yielded a Ki greater than 1000 nM. With CC(C)Oc1c(Br)cc(F)cc1B(O)O [Compound I-7] the Ki was greater than 1000 nM. In the case of CCCOc1c(Br)cc(F)cc1B(O)O [Compound I-8], the Ki is reported as greater than 1000 nM. For CCOc1c(Br)cc(F)cc1B(O)O [Compound I-9], the Ki was 10 to 1000 nM. Compound COc1c(Br)cc(F)cc1B(O)O [Compound I-10] has a Ki of 10 to 100 nM. Compound OB(O)C1=CCCCCC1 [Compound I-11] has a Ki greater than 1000 nM. COc1ccc(Br)cc1B(O)O [Compound I-12] showed a Ki greater than 1000 nM. OB(O)c1cc(F)cc(C(F)(F)F)c1 [Compound I-13] was tested, and the Ki was 10 to 100 nM. Cc1cc(F)cc(B(O)O)c1 [Compound I-14] showed a Ki of 10 to 1000 nM. For COc1cc(F)cc(B(O)O)c1 [Compound I-15], the Ki was 10 to 1000 nM. CCOc1cc(F)cc(B(O)O)c1 [Compound I-16] showed a Ki of 10 to 1000 nM. Work on COc1cc(Br)cc(B(O)O)c1 [Compound I-17] yielded a Ki greater than 1000 nM. Compound OB(O)c1cc(F)cc(Cl)c1 [Compound I-18] has a Ki of 10 to 100 nM. With CCOc1cc(B(O)O)cc(C(F)(F)F)c1 [Compound I-19] the Ki was greater than 1000 nM. Cc1cc(Cl)cc(B(O)O)c1 [Compound I-20] showed a Ki of 10 to 1000 nM. COc1cc(B(O)O)cc(C(F)(F)F)c1 [Compound I-21] gave a Ki greater than 1000 nM. With OB(O)c1cc(Cl)cc(Cl)c1 [Compound I-22] the Ki was 10 to 1000 nM. For OB(O)c1cc(Br)cc(Br)c1 [Compound I-23], the Ki was 10 to 1000 nM. OB(O)c1cc(F)cc(F)c1 [Compound I-24] showed a Ki of 10 to 1000 nM. With Cc1cc(Br)cc(B(O)O)c1 [Compound I-25] the Ki was 10 to 1000 nM. OB(O)c1cc(F)cc(Br)c1 [Compound I-26] was tested, and the Ki was 10 to 100 nM. For OB(O)c1cc(OC(F)(F)F)ccc1F [Compound I-27], the Ki was 10 to 100 nM. OB(O)c1ccc(F)c(OCC(F)(F)F)c1 [Compound I-28] was tested, and the Ki was 10 to 1000 nM. For OB(O)c1cccc(Br)c1 [Compound I-29], the Ki was 10 to 100 nM. CCC[C@H]1CC[C@H](c2ccc(B(O)O)cc2)CC1 [Compound I-30] showed a Ki of less than 10 nM. For OB(O)c1ccc(-c2cccs2)cc1 [Compound I-31], the Ki was 10 to 100 nM. Work on COc1ccc(B(O)O)cc1Cl [Compound I-32] yielded a Ki of 10 to 1000 nM. With Cc1ccc(B(O)O)cc1Cl [Compound I-33] the Ki was 10 to 1000 nM. OB(O)c1ccc(Br)c(F)c1F [Compound I-34] was tested, and the Ki was 10 to 100 nM. Work on CC(C)Oc1ccc(B(O)O)cc1Cl [Compound I-35] yielded a Ki of 10 to 100 nM. Work on CCCCOc1ccc(B(O)O)cc1F [Compound I-36] yielded a Ki of less than 10 nM. OB(O)c1ccc(Cl)s1 [Compound I-37] showed a Ki of 10 to 1000 nM. Compound CCCCOc1ccc(B(O)O)cc1Cl [Compound I-38] has a Ki of less than 10 nM. OB(O)c1ccccc1Cl [Compound I-39] showed a Ki of 10 to 1000 nM. In the case of OB(O)c1cccs1 [Compound I-40], the Ki is reported as greater than 1000 nM. OB(O)c1cccc2cnccc12 [Compound I-41] gave a Ki greater than 1000 nM. Work on CC(=O)c1cccc(B(O)O)c1 [Compound I-42] yielded a Ki of 10 to 1000 nM. For OB(O)c1ccc(C2CCCC2)cc1 [Compound I-43], the Ki was less than 10 nM. Work on OB(O)c1c(F)c(F)c(Br)c(F)c1F [Compound I-44] yielded a Ki greater than 1000 nM. Work on OB(O)c1cccc(OC(F)(F)F)c1 [Compound I-45] yielded a Ki of 10 to 1000 nM. Work on N#Cc1ccc(B(O)O)cc1 [Compound I-46] yielded a Ki of 10 to 1000 nM. With CS(=O)(=O)c1cccc(B(O)O)c1 [Compound I-47] the Ki was greater than 1000 nM. OB(O)c1ccccc1OC(F)(F)F [Compound I-48] gave a Ki of 10 to 1000 nM. CCCCCCCc1ccc(B(O)O)cc1 [Compound I-49] was tested, and the Ki was less than 10 nM. In the case of OB(O)c1cccc(C(F)(F)F)c1 [Compound I-50], the Ki is reported as 10 to 100 nM. Compound OB(O)c1ccsc1Cl [Compound I-51] has a Ki of 10 to 1000 nM. CCOc1ccc2cc(B(O)O)ccc2c1 [Compound I-52] gave a Ki of less than 10 nM. For CCCCOc1c(F)c(F)c(B(O)O)c(F)c1F [Compound I-53], the Ki was greater than 1000 nM. Work on CCCOc1c(F)c(F)c(B(O)O)c(F)c1F [Compound I-54] yielded a Ki greater than 1000 nM. Compound OB(O)c1c(F)c(F)cc(F)c1F [Compound I-55] has a Ki greater than 1000 nM. Compound OB(O)c1ccc2cc(OCc3ccccc3)ccc2c1 [Compound I-56] has a Ki of less than 10 nM. CCc1ccc(B(O)O)cc1 [Compound I-57] showed a Ki of 10 to 1000 nM. For CCCc1ccc(B(O)O)cc1 [Compound I-58], the Ki was 10 to 100 nM. CCOc1ccc(B(O)O)cc1 [Compound I-59] gave a Ki of 10 to 1000 nM. In the case of CCCOc1ccc(B(O)O)cc1 [Compound I-60], the Ki is reported as 10 to 100 nM. In the case of CCCCOc1ccc(B(O)O)cc1 [Compound I-61], the Ki is reported as 10 to 100 nM. Compound OB(O)c1cncc2ccccc12 [Compound I-62] has a Ki greater than 1000 nM. Compound OB(O)c1cc(C(F)(F)F)cc(C(F)(F)F)c1 [Compound I-63] has a Ki greater than 1000 nM. With OB(O)c1ccoc1 [Compound I-64] the Ki was greater than 1000 nM. Work on OB(O)c1cnc2ccccc2c1 [Compound I-65] yielded a Ki greater than 1000 nM. In the case of O=[N+]([O-])c1ccccc1B(O)O [Compound I-66], the Ki is reported as greater than 1000 nM. CN(C)c1ccc(B(O)O)cc1 [Compound I-68] was tested, and the Ki was greater than 1000 nM. OB(O)c1ccc(Br)cc1 [Compound I-69] gave a Ki of 10 to 1000 nM. OB(O)c1ccc(I)cc1 [Compound I-70] showed a Ki of 10 to 100 nM. For OB(O)c1cccc(F)c1 [Compound I-71], the Ki was greater than 1000 nM. Work on OB(O)c1ccc(F)cc1 [Compound I-72] yielded a Ki greater than 1000 nM. OB(O)c1cccc(Cl)c1 [Compound I-73] showed a Ki of 10 to 1000 nM. Work on OB(O)c1ccc(O)cc1 [Compound I-74] yielded a Ki greater than 1000 nM. OB(O)c1ccc(Cl)c(Cl)c1 [Compound I-75] gave a Ki of 10 to 100 nM. Work on COc1cccc(B(O)O)c1 [Compound I-76] yielded a Ki greater than 1000 nM. COc1ccc(B(O)O)cc1OC [Compound I-77] gave a Ki greater than 1000 nM. Work on COc1ccccc1B(O)O [Compound I-78] yielded a Ki greater than 1000 nM. Cc1cccc(B(O)O)c1 [Compound I-79] was tested, and the Ki was greater than 1000 nM. Cc1ccc(B(O)O)cc1C [Compound I-80] was tested, and the Ki was 10 to 1000 nM. Cc1ccccc1B(O)O [Compound I-81] was tested, and the Ki was greater than 1000 nM. O=[N+]([O-])c1ccc(B(O)O)cc1 [Compound I-83] was tested, and the Ki was 10 to 1000 nM. CS(=O)(=O)c1ccc(B(O)O)cc1 [Compound I-84] gave a Ki of 10 to 1000 nM. With CC(=O)c1ccc(B(O)O)cc1 [Compound I-85] the Ki was 10 to 1000 nM. Work on OB(O)c1ccc(C(F)(F)F)cc1 [Compound I-86] yielded a Ki of 10 to 100 nM. COc1ccc(B(O)O)cc1 [Compound I-87] showed a Ki greater than 1000 nM. OB(O)c1ccc2c(c1)OCO2 [Compound I-88] gave a Ki greater than 1000 nM. Work on OB(O)c1cncnc1 [Compound I-89] yielded a Ki greater than 1000 nM. OB(O)c1ccncc1 [Compound I-90] showed a Ki greater than 1000 nM. Compound OB(O)c1cccnc1 [Compound I-91] has a Ki greater than 1000 nM. Work on OB(O)c1ccsc1 [Compound I-92] yielded a Ki greater than 1000 nM. With OB(O)c1ccco1 [Compound I-93] the Ki was greater than 1000 nM. Compound CC(C)(C)c1ccc(B(O)O)cc1 [Compound I-94] has a Ki of 10 to 100 nM. Work on CC(C)c1ccc(B(O)O)cc1 [Compound I-95] yielded a Ki of 10 to 100 nM.
